Source: PubChem BioAssay AID1259411 (Chemical Carcinogenesis Research Information System (CCRIS), 2018)
Activity calls are given as the source filed them. How the calls were made is not given here.

Test system: rodent carcinogenicity bioassays, tumor incidence
Assay: CCRIS carcinogenicity studies
Conditions: Dose: 0, Dose: 0
Method in brief: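 NCI-built, expert-reviewed records of carcinogenicity and related test outcomes (mutagenicity, tumor promotion/inhibition) compiled from published and report sources, historical span 1985-2011, not updated.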

## OC(O)C(Cl)(Cl)Cl
Species: MOUSE, Strain/Sex: B6C3F1/FEMALE, Route: GAVAGE, 10, 25, 50 MG/KG BW ONCE AT 15 DAYS OF AGE (STUDY DURATION: 104 WK), 10, 25, 50 MG/KG BW ONCE AT 15 DAYS OF AGE (STUDY DURATION: 104 WK)
  carcinogen call: inactive; negative
Species: MOUSE, Strain/Sex: B6C3F1/FEMALE, Route: GAVAGE, 25, 50, 100 MG/KG 5 D/WK FOR 104 WK (STUDY DURATION: 104 WK), 25, 50, 100 MG/KG 5 D/WK FOR 104 WK (STUDY DURATION: 104 WK), Tumor Site: Type of Lesion: PITUITARY GLAND (PARS DISTALIS): ADENOMA
  carcinogen call: equivocal
Species: MOUSE, Strain/Sex: B6C3F1/FEMALE, Route: GAVAGE, 25, 50, 100 MG/KG BW ONCE AT 28 DAYS OF AGE (STUDY DURATION: 104 WK), 25, 50, 100 MG/KG BW ONCE AT 28 DAYS OF AGE (STUDY DURATION: 104 WK)
  carcinogen call: inactive; negative
Species: MOUSE, Strain/Sex: B6C3F1/FEMALE, Route: GAVAGE, 100 MG/KG BW 5 D/WK FOR 3 MO (STUDY DURATION: 104 WK), Tumor Site: Type of Lesion: PITUITARY GLAND (PARS DISTALIS): ADENOMA
  carcinogen call: equivocal
Species: MOUSE, Strain/Sex: B6C3F1/FEMALE, Route: GAVAGE, 100 MG/KG BW 5 D/WK FOR 6 MO (STUDY DURATION: 104 WK), Tumor Site: Type of Lesion: PITUITARY GLAND (PARS DISTALIS): ADENOMA
  carcinogen call: equivocal
Species: MOUSE, Strain/Sex: B6C3F1/FEMALE, Route: GAVAGE, 100 MG/KG BW 5 D/WK FOR 12 MO (STUDY DURATION: 104 WK), Tumor Site: Type of Lesion: PITUITARY GLAND (PARS DISTALIS): ADENOMA
  carcinogen call: equivocal
Species: MOUSE, Strain/Sex: B6C3F1/FEMALE, Route: INTRAPERITONEAL, 1000 NMOL TOTAL DOSE, 1/3 AND 2/3 OF THE TOTAL DOSE ADMINISTERED AT 8 AND 15 DAYS OF AGE RESPECTIVELY, ANIMALS TERMIN
  carcinogen call: inactive; negative
Species: MOUSE, Strain/Sex: B6C3F1/FEMALE, Route: INTRAPERITONEAL, 2000 NMOL TOTAL DOSE, 3/7 AND 4/7 OF THE TOTAL DOSE ADMINISTERED AT 8 AND 15 DAYS OF AGE RESPECTIVELY, ANIMALS TERMIN
  carcinogen call: inactive; negative
Species: MOUSE, Strain/Sex: B6C3F1/MALE, Route: GAVAGE, 10, 25, 50 MG/KG BW ONCE AT 15 DAYS OF AGE (STUDY DURATION: 104 WK), 10, 25, 50 MG/KG BW ONCE AT 15 DAYS OF AGE (STUDY DURATION: 104 WK)
  carcinogen call: inactive; negative
Species: MOUSE, Strain/Sex: B6C3F1/MALE, Route: GAVAGE, 25, 50, 100 MG/KG IN WATER 5X/WK FOR STUDY DURATION WITH AD LIBITUM FEEDING (STUDY DURATION: 104-105 WK), 25, 50, 100 MG/KG IN WATER 5X/WK FOR STUDY DURATION WITH AD LIBITUM FEEDING (STUDY DURATION: 104-105 WK), Tumor Site: Type of Lesion: LIVER: HEPATOCELLULAR ADENOMA OR CARCINOMA
  carcinogen call: active; positive
Species: MOUSE, Strain/Sex: B6C3F1/MALE, Route: GAVAGE, 25, 50, 100 MG/KG IN WATER 5X/WK FOR STUDY DURATION WITH DIETARY-CONTROLLED FEEDING TO MAINTAIN IDEAL BODY WEIGHT (ST, 25, 50, 100 MG/KG IN WATER 5X/WK FOR STUDY DURATION WITH DIETARY-CONTROLLED FEEDING TO MAINTAIN IDEAL BODY WEIGHT (ST, Tumor Site: Type of Lesion: LIVER: HEPATOCELLULAR ADENOMA OR CARCINOMA
  carcinogen call: active; positive
Species: MOUSE, Strain/Sex: B6C3F1/MALE, Route: INTRAPERITONEAL, 1000 NMOL TOTAL DOSE, 1/3 AND 2/3 OF THE TOTAL DOSE ADMINISTERED AT 8 AND 15 DAYS OF AGE RESPECTIVELY, ANIMALS TERMIN
  carcinogen call: inactive; negative
Species: MOUSE, Strain/Sex: B6C3F1/MALE, Route: INTRAPERITONEAL, 2000 NMOL TOTAL DOSE, 3/7 AND 4/7 OF THE TOTAL DOSE ADMINISTERED AT 8 AND 15 DAYS OF AGE RESPECTIVELY, ANIMALS TERMIN
  carcinogen call: inactive; negative
Species: MOUSE, Strain/Sex: B6C3F1/MALE, Route: ORAL, 0.05, 0.5, 1 G/L IN DRINKING WATER FOR 104 WK (STUDY DURATION: 104 WK), 0.05, 0.5, 1 G/L IN DRINKING WATER FOR 104 WK (STUDY DURATION: 104 WK), Tumor Site: Type of Lesion: LIVER: HEPATOCELLULAR ADENOMA OR CARCINOMA
  carcinogen call: active; positive
Species: MOUSE, Strain/Sex: B6C3F1/MALE, Route: ORAL, 1 G/L DISTILLED DRINKING WATER FOR STUDY DURATION (166 MG/KG/D) (STUDY DURATION: 104 WK), Tumor Site: Type of Lesion: LIVER: HEPATOCELLULAR CARCINOMA, HEPATOCELLULAR ADENOMA
  carcinogen call: active; positive
Species: RAT, Strain/Sex: F344/N/MALE, Route: ORAL, 0.05, 0.5, 2 G/L IN DRINKING WATER FOR 104 WK (STUDY DURATION: 104 WK), 0.05, 0.5, 2 G/L IN DRINKING WATER FOR 104 WK (STUDY DURATION: 104 WK)
  carcinogen call: inactive; negative
Species: RAT, Strain/Sex: SPRAGUE-DAWLEY/FEMALE, Route: ORAL, 15, 45, 135 MG/KG BW/D IN DRINKING WATER FOR 128 WK (STUDY DURATION: 128 WK), 15, 45, 135 MG/KG BW/D IN DRINKING WATER FOR 128 WK (STUDY DURATION: 128 WK)
  carcinogen call: inactive; negative
Species: RAT, Strain/Sex: SPRAGUE-DAWLEY/MALE, Route: ORAL, 15, 45, 135 MG/KG BW/D IN DRINKING WATER FOR 124 WK (STUDY DURATION: 124 WK), 15, 45, 135 MG/KG BW/D IN DRINKING WATER FOR 124 WK (STUDY DURATION: 124 WK)
  carcinogen call: inactive; negative

## O[C@H]1[C@@H]2O[C@@H]2C=C[C@@H]1O
Species: MOUSE, Strain/Sex: SWISS/FEMALE, Route: INTRAPERITONEAL, 2.7, 13.7 UMOL ADMINISTERED AS 3 UNEQUAL DOSES (1/7, 2/7, AND 4/7 OF THE TOTAL DOSE) OVER A 2-WK PERIOD (STUDY DURATI, 2.7, 13.7 UMOL ADMINISTERED AS 3 UNEQUAL DOSES (1/7, 2/7, AND 4/7 OF THE TOTAL DOSE) OVER A 2-WK PERIOD (STUDY DURATI
  carcinogen call: inactive; negative
Species: MOUSE, Strain/Sex: SWISS/MALE, Route: INTRAPERITONEAL, 2.7, 13.7 UMOL ADMINISTERED AS 3 UNEQUAL DOSES (1/7, 2/7, AND 4/7 OF THE TOTAL DOSE) OVER A 2-WK PERIOD (STUDY DURATI, 2.7, 13.7 UMOL ADMINISTERED AS 3 UNEQUAL DOSES (1/7, 2/7, AND 4/7 OF THE TOTAL DOSE) OVER A 2-WK PERIOD (STUDY DURATI
  carcinogen call: inactive; negative

## O=P(OCC(Br)CBr)(OCC(Br)CBr)OCC(Br)CBr (centres undefined)
Species: MOUSE, Strain/Sex: B6C3F1/FEMALE, Route: ORAL, 500, 1000 PPM IN DIET, 500, 1000 PPM IN DIET, Tumor Site: Type of Lesion: STOMACH: SQUAMOUS CELL PAPILLOMA OR CARCINOMA, LUNG: ALVEOLAR/BRONCHIOLAR ADENOMA OR CARCINOMA, LIVER: HEPATOCELLULAR AD, Tumor Site: Type of Lesion: STOMACH: SQUAMOUS CELL PAPILLOMA OR CARCINOMA, LUNG: ALVEOLAR/BRONCHIOLAR ADENOMA OR CARCINOMA, LIVER: HEPATOCELLULAR AD
  carcinogen call: active; positive
Species: MOUSE, Strain/Sex: B6C3F1/MALE, Route: ORAL, 500, 1000 PPM IN DIET, 500, 1000 PPM IN DIET, Tumor Site: Type of Lesion: STOMACH: SQUAMOUS CELL PAPILLOMA OR CARCINOMA, LUNG: ALVEOLAR/BRONCHIOLAR ADENOMA OR CARCINOMA
  carcinogen call: active; positive
Species: RAT, Strain/Sex: F344/FEMALE, Route: ORAL, 50, 100 PPM IN DIET, 50, 100 PPM IN DIET, Tumor Site: Type of Lesion: KIDNEY: TUBULAR CELL ADENOMA
  carcinogen call: active; positive
Species: RAT, Strain/Sex: F344/MALE, Route: ORAL, 50, 100 PPM IN DIET, 50, 100 PPM IN DIET, Tumor Site: Type of Lesion: KIDNEY: TUBULAR CELL ADENOMA OR ADENOCARCINOMA
  carcinogen call: active; positive
